Data set [1] has as its system Fusobacterium necrophorum ATCC No. 25286. To be noted: for zone of inhibition of Fusobacterium necrophorum: disc on BA plate, anaerobic 48 hours, mean of three assays; for zone of inhibition of F. necrophorum, comparison between minerals: at each of the concentrations (2.5-15%), P<0.01; for zone of inhibition of F. necrophorum, comparison between minerals / overall antibacterial effect on F. necrophorum: in words; for overall antibacterial effect on F. necrophorum: summary.
Method: (§1) The bacterial strains used for this study were obtained from the American Type Culture Collection (ATCC).
(§2) Dehydrated bacteria were resuspended in 5 mL of Brain Heart Infusion (BHI) broth and incubated anaerobically for 48 hours at 37° C. A total of 20 uL of each resuspended bacterial solution was plated on two 5% Trypticase Sheep Blood Agar (BA) plates and incubated anaerobically for 48 hours at 37° C. to ensure that a pure culture was maintained throughout the resuspension process. Six (6) vials of each bacterium were frozen down from the resuspended broth in a 20% glycerol solution (500 uL bacteria: 500 uL 40% glycerol).
(§3) One vial from the frozen stock of each bacterial strain was grown in 100 mL of Difco Anaerobe Broth MIC. P. melaninogenica was grown anaerobically for 24 hours at 37° C. and F. necrophorum was grown anaerobically for 48 hours at 37° C. After incubation, one hundred (100) 1 mL-vials of each bacterium were frozen down in a 10% glycerol solution.
(§4) Colony forming units/mL (CFU/mL) for each bacterium was determined by thawing 3 vials of each bacteria and making serial 1:10 dilutions out to 10e^−7. Separate serial dilutions were made for each of the three vials. A total of 100 uL of dilutions 10e^−3, 10e^−4, 10e^−5, 10e^−6, and 10e^−7 were plated in duplicate for each vial on BA plates and incubated under the appropriate culture conditions for each. The number of colonies growing on each dilution plate was counted and the CFU/mL for each dilution was determined. The average CFU/mL for each bacterium was calculated and used for all further assays.
(§5) The ZnCl arrived as a 60% solution and was diluted with distilled water to achieve concentrations of 2.5%, 5%, 10%, and 15% by weight. […] All mineral concentrations were filter-sterilized to ensure sterility.
(§6) To determine whether different concentrations of mineral salt solutions can inhibit the growth of an established culture, a separate blank paper disc was infused with each concentration of mineral salt solution and placed onto BA plates that had been swabbed with established cultures of each bacterium. Plates were incubated anaerobically for 48 hours and the zone (in mm) around each disc with no bacterial growth was measured with a caliper. The assay was repeated three times, and the mean zone of inhibition for each mineral concentration was calculated.
(§7) Data were analyzed using the Mixed Model procedure of SAS (PROC MIXED; SAS Stat Inc., Cary, N.C.) to test the effect of different concentrations for each mineral on P. melaninogenica and F. necrophorum. Least square means were calculated and separated using the PDIFF option of SAS. Contrast statements of SAS were used to determine linear and quadratic effects. The plate was used as the experimental unit. An alpha level of 0.05 was used to assess the significance in this experiment.

Data set [2] relates to Prevotella melaninogenica ATCC No. 25845. To be noted: for zone of inhibition of Prevotella melaninogenica: disc on BA plate, anaerobic 48 hours, mean of three assays; for zone of inhibition of P. melaninogenica, comparison between minerals: at each of the concentrations (2.5-15%); for zone of inhibition of P. melaninogenica, comparison between minerals / overall antibacterial effect on P. melaninogenica: in words; for overall antibacterial effect on P. melaninogenica: summary.
Method: as §1, §2, §3, §4, §5, §6, §7

The mark [3] stands for this setting: 2.5% solution in distilled water.
The mark [4] stands for this setting: 10% solution in distilled water.
The mark [5] stands for this setting: 15% solution in distilled water.

Where two headings read alike, the source gives them in different places. Marks after values point to notes of the source that are not given here.

For `O=S(=O)([O-])[O-].[Cu+2]` [CuSO4, copper sulfate], the “zone of inhibition of Fusobacterium necrophorum” value was 36.3^c mm in data set [1] (2.5% solution), 40.7^c mm in data set [1] (5% solution), 46.7^c mm in data set [1] (10% solution) and 52.2^c mm in data set [1] (15% solution). Further, the “zone of inhibition of F. necrophorum, comparison between minerals” value (shortened to “zone of inhibition of F. necrophorum”) in data set [1] was “greatest”. Further, the “overall antibacterial effect on F. necrophorum” value in data set [1] is listed as “greatest antibacterial effect”. For the same compound, the “zone of inhibition of Prevotella melaninogenica” value in data set [2] (2.5% solution) is given as 31.0^a mm; in data set [2] (5% solution), 31.7^a mm; in data set [2] (10% solution), 38.2^a mm; in data set [2] (15% solution), 40.7^a mm. Moreover, the “zone of inhibition of P. melaninogenica, comparison between minerals” value in data set [2] is recorded as “not significantly different”. Moreover, in data set [2], the “overall antibacterial effect on P. melaninogenica” value is given as “greatest antibacterial effect”. In addition, the “pH of mineral salt solution” value under setting [3] is reported as 4.34, the “pH of mineral salt solution” value (5% solution in distilled water) is listed as 4.13, the “pH of mineral salt solution” value under setting [4] was determined as 3.94 and the “pH of mineral salt solution” value under setting [5] is recorded as 3.81.

As for `O=S(=O)([O-])[O-].[Zn+2]` [ZnSO4, zinc sulfate], the “zone of inhibition of Fusobacterium necrophorum” value in data set [1] (2.5% solution) is 25.0^a mm; in data set [1] (5% solution), 29.5^a mm; in data set [1] (10% solution), 35.8^a mm; in data set [1] (15% solution), 40.4^a mm. In addition, in data set [1], the “zone of inhibition of F. necrophorum” value was “smallest”. Besides, the “overall antibacterial effect on F. necrophorum” value in data set [1] is given as “only slightly less antibacterial activity”. Moreover, the “zone of inhibition of Prevotella melaninogenica” value in data set [2] (2.5% solution) is listed as 29.3^a mm; in data set [2] (5% solution) it was 33.5^a mm; in data set [2] (10% solution) it was 38.6^a mm; in data set [2] (15% solution), 42.9^a mm. For the same compound, the “overall antibacterial effect on P. melaninogenica” value in data set [2] was “only slightly less antibacterial activity”. The “pH of mineral salt solution” value runs as follows: under setting [3], 5.06; (5% solution in distilled water) 4.75; under setting [4], 4.34; under setting [5], 4.16.

Take `[Cl-].[Cl-].[Zn+2]` [ZnCl2, zinc chloride]: the “zone of inhibition of Fusobacterium necrophorum” value is 27.6^b mm in data set [1] (2.5% solution), 33.9^b mm in data set [1] (5% solution), 41.3^b mm in data set [1] (10% solution) and 44.2^b mm in data set [1] (15% solution). Besides, the “zone of inhibition of F. necrophorum” value in data set [1] is reported as “intermediate”. Besides, the “overall antibacterial effect on F. necrophorum” value in data set [1] is “greatest antibacterial effect”. The “zone of inhibition of Prevotella melaninogenica” value in data set [2] (2.5% solution) is reported as 38.9^b mm; in data set [2] (5% solution) it was 42.5^b mm; in data set [2] (10% solution), 46.6^b mm; in data set [2] (15% solution) it was 52.0^b mm. Further, the “zone of inhibition of P. melaninogenica, comparison between minerals” value in data set [2] is reported as “significantly greater zone of inhibition”. For the same compound, in data set [2], the “overall antibacterial effect on P. melaninogenica” value is “greatest antibacterial effect”. Also, the “pH of mineral salt solution” value runs as follows: under setting [3], 6.02; (5% solution in distilled water) 5.78; under setting [4], 5.43; under setting [5], 5.21. For the same compound, the “pH relative to the other mineral salts” value (at all of the concentrations, in words) is listed as “less acidic”.

The values are drawn from patent US7670629B2, “Method of treating bacterial hoof infections of sheep and cattle” (priority 2005, dated 2010).
